Assay results as given in US20040044304A1, “Local drug delivery using photosensitizer-mediated and electromagnetic radiation enhanced vascular permeability” (priority 2002, published 2004).

Test system: blood vessels within the dorsal window chamber
Assay type: in vivo, mice of strain C3H
Source text: Male mice of strain C3H (sourced from The Jackson Laboratory, 600 Main Street, Bar Harbor, Me. 04609 USA) weighing between 28-30 gram were surgically implanted with titanium back-pack window chambers in a similar manner to that described for Syrian Golden hamsters as described above. Prior to the surgical procedure, the dorsal surface of the mouse was shaved with electric clippers (Sunbeam Oster 2-Speed, 150 Cadillac Lane, McMinnville, Tenn., 37110) and then the shaved skin covered in a depilatory cream (Nair, Carter Products, New York, N.Y., 10105) for 10 minutes to remove the remaining hair. Then a dorsal skin fold consisting of two layers of skin and muscle tissue was sandwiched between two opposing titanium frames (Campus Research Machine Shop, University of California, San Diego 9500 Gilman Drive, La Jolla, Calif.) with a 14 mm circular opening in each. Layers of skin and muscle fascia were separated from the sub-cutaneous tissue, and removed until a thin monolayer of muscle and one layer of intact skin remained. A coverglass (Type Circle 1, Part #12-545-80 sourced from Fisher Scientific, 2761 Walnut Avenue, Tustin, Calif., 92780) held by an expansion ring in the circular window of one titanium frame was then placed on the exposed tissue to allow direct microscopic visualization of the vasculature. The window in the second opposing titanium frame was left open exposing the intact skin.
Microvascular observations using an intra-vital microscope were not undertaken until at least 2 days post-chamber implantation to mitigate against post-surgical trauma, and to confirm that blood vessels within the chamber were functioning and intact and patent. A chamber was considered suitable for subsequent studies if microscopic examination of the preparation met the following criteria (as applied in Friesenecker et al., 1994):
The intra-vital microscopic studies were undertaken on un-sedated animals held in a Plexiglass tube (manufactured by Miravant Medical Technologies, Inc., 336 Bollay Drive, Santa Barbara, 93117) from which the window chamber sandwich protruded horizontally, allowing visualization of the chamber on the microscope stage. The Plexiglass tube acted to restrain the animals without impeding respiration. The intra-vital microscopy was performed using a Leitz Dialux 22 (West LA Microscope Co., Butler Avenue, Santa Monica, 90025) fitted with a Leitz Wetzlar 20× L20 lens (0.32 numerical aperture), a Leitz Wetzlar 10× Planfluotar lens (0.30 numerical aperture), a Leitz Wetzlar 4× EF lens (0.12 numerical aperture), a Leitz Wetzlar 2.5× P1 lens (0.08 numerical aperture, and an Olympus 20× Wplan water immersion lens (0.4 numerical aperture). The intra-vital microscope system used for these studies was fitted with two trans-illumination light sources and one epi-illumination light source. The two trans-illumination sources were used in the following manner. One trans-illumination light source was used for imaging the tissue within the window chamber, and the other was used as the irradiation source for activating the photosensitizer in the tissue. The imaging source was a […] mercury arc lamp (Type 307-143.004 from Ernst Leitz Wetzlar GmBH, Germany) which was powered by an HBO 100 power supply (LEP Ltd., Scarsdale, N.Y.). The output from this source was filtered using a #H43157 interference filter (Edmund Scientific, 101 East Gloucester Pike, Barrington, N.J., 08007-1380), to produce a beam of 410 nm light. The irradiation source was a Model DD4 Diode Laser (Miravant Medical Technologies 336 Bollay Drive., Santa Barbara, Calif., 93117), which produced 664 nm light.

Question: Which results are given for `C=Cc1c(C)c2[n]3c1=CC1=NC(=Cc4c(C)c5c([n]4[In]3[Cl])C(=C3N=C(C=2)[C@@H](C)[C@@H]3CCC(=O)OC)CC5=O)C(CC)=C1C` [MV6401, indium methyl pyropheophorbide]?
Answer: Extravasation of FITC-Dextran from larger vessels in field (mouse #2, MV6401 0.05 mg/kg i.v., 664 nm, 15 J/cm^2, 50 mW/cm^2, FITC-Dextran 1 day post PhotoPoint therapy): Pronounced extravasation; Extravasation of FITC-Dextran from many vessels in the treatment field (mouse #3, MV6401 0.05 mg/kg i.v., 664 nm, 20 J/cm^2, 50 mW/cm^2, FITC-Dextran 2 days post PhotoPoint therapy): flowing. Pronounced; Edema in field (mouse, in vivo, iv, 0.05 mg/kg): Mild edema in field.; Focal edema and cellular infiltrate (mouse, in vivo, iv, 0.05 mg/kg): minor areas of focal; Focal vascular damage in the treatment field, immediately post FITC-Dextran administration (mouse, in vivo, iv, 0.05 mg/kg): Some evidence of focal; Tissue damage, subsequent observation (mouse, in vivo, iv, 0.05 mg/kg): damage. Some evidence; Vascular damage, subsequent observation (mouse, in vivo, iv, 0.05 mg/kg): Pronounced focal vascular
